# Data from US10213506B2, “Targeting immunotherapy for amyloidosis” (UNIVERSITY OF TENNESSEE RESEARCH FOUNDATION, priority 2014, dated 2019).
# Tests used:
# human ATTR amyloid = target: T1, human ATTR amyloid (Homo sapiens, UniProt P02766); experiment: Pre-targeting immunohistochemistry on ATTR-laden tissue sections; assay type: binding; conditions: biotinylated peptide without mAb; compared with Congo red
# T1 construct: human ATTR-laden formalin-fixed paraffin embedded tissue sections; from tissue
# Description: The pre-targeting efficacy of peptide p5+14 in conjunction with mAb clones 4, 5, 12, or 13 was further evaluated using human ATTR-laden formalin-fixed paraffin embedded tissue sections. More particularly, six micrometer-thick sections, cut from formalin-fixed, paraffin embedded human transthyretin (TTR) amyloid-laden tissue, were subjected to antigen retrieval by incubation with CitraPlus (BioGenex, San Ramon, Calif.) for 30 min at 90° C. Peptide p5+14 was added to the tissue at ˜3 μg/mL (30× molar excess over mAb) and incubated overnight at 4° C. Unbound reagent was removed by washing in PBST for 30 min. Tissues (with or without p5+14) were immunostained with a 3 μg/mL solution of biotinylated anti-peptide mAb (clones 4, 5, 12, or 13). Slides were developed by addition of streptavidin-HRP (Vectastain Elite ABC kit, Vector Labs) followed by 3,3′-diaminobezidene (Vector Labs).
# By way of positive control, a biotinylated-p5+14 peptide (without mAb) was used to directly stain TTR amyloid in this tissue (red arrows, below), as described above.
# To confirm the presence and distribution of amyloid in the tissue a consecutive slide was stained with Congo red. Briefly, tissues were incubated in Congo red solution (0.8% w/v Congo red, 0.2% KOH w/v in 80% ethanol) for 1 h at RT. Sections were then washed in water and counterstained by suspending in Mayer's hematoxylin for 2 min. […]
# [1] = test system: synthetic and naturally-occurring amyloid samples; experiment: 125I-peptide pull-down assay; assay type: binding
# Description: To evaluate the binding of p66 and p5+14 to synthetic and naturally-occurring amyloid, peptides p66 or p5+14 were radiolabeled with iodine-125 (I-125, ^125I) using oxidation with chloramine T (1 mg/ml in water freshly made. Free 1-125 was removed from the reaction mixture by size exclusion chromatography using a Sephadex G-25 solid phase and a 0.1% (w/v) gelatin in PBS mobile phase. Fractions of ˜250 μl were collected and the radioactivity in each measured using a gamma counter (Packard Cobra II auto-gamma counter). Peptide fractions with peak radioactivity were pooled and used for the “pull-down” assays.
# For the pull down assay, ^125I-labeled peptide binding to murine: (m) AA and wild type (WT) liver homogenates (25 μl); rVλ6Wil (AL), Aβ(1-40) and islet amyloid polypeptide (IAPP) synthetic fibrils (25 μg), and; transthyretin-associated (ATTR), ALκ4-Cab and ALλ1-Ship human amyloid extracts (50 μg). The ^125I-peptides were prepared in PBST (0.15 M NaCl) or PBST with 1 M NaCl. Ten μl (˜5 ng, ˜100,000 counts per min [cpm]) of the ^125I-peptide solution was added to each test sample in a 200 μl volume. The reaction mixtures were rotated for 1 h at RT, then centrifuged twice at 16,000× g for 10 min. After each step the supernatants were removed and collected in test tubes. The pellets, obtained following the second spin were resuspended in PBST. The radioactivity in both the supernatant and pellet samples were measured using a Packard Cobra II auto-gamma counter. The bound peptide, expressed as % total was calculated according to: Bound peptide(% total)=(Pellet cpm)/(Pellet cpm+Supernatant cpm)
# AA amyloid = experiment: In vivo pre-targeting of 125I-11-1F4 to systemic AA amyloid; conditions: AA mice, ~400 μg unlabeled peptide, 24 h post injection of 11-1F4
# Description: (§1) Systemic visceral AA amyloidosis was induced in H2-L^d-huIL-6 Tg Balb/c transgenic mice that constitutively express the human interleukin-6 transgene, by iv injection of 10 μg of purified, splenic AA amyloid (amyloid enhancing factor; AEF) in 100 μL of sterile phosphate-buffered saline (PBS). Peptide p66 pre-targeting of ^125I-11-1F4 was evaluated in mice at 3-4 wk post AEF injection when amyloid load was modest.
# (§2) Three cohorts of 3 mice, each received ˜400 μg of unlabeled peptide p66, and a second group of 3 cohorts were given peptide p5+14 as a control. Twenty-four hours after the peptide injection all mice were administered ˜150 μCi (˜20 μg) of ^125I-11-1F4 IV in the lateral tail vein. One group of p66 mice (n=3) and one group of p5+14 control mice (n=3) were euthanized at 24, 48 and 72 h post injection of 11-1F4 mAb and the organs harvested at necropsy for fixation, followed by microautoradiographic and immunohistochemical analyses.
# For autoradiography, 6-μm-thick sections were cut from formalin-fixed, paraffin-embedded blocks, containing tissues from mice that had received ^125I-p66. The sections were placed on Plus microscope slides (Fisher Scientific), dipped in NTB-2 emulsion (Eastman Kodak), stored in the dark, and developed after a 4 day exposure. Each section was counterstained with hematoxylin and eosin. […]
# liver macrophages = experiment: Liver macrophage staining (Iba-1) after in vivo pre-targeting; conditions: AA mice pre-injected with the peptide, 72 h post injection of 11-1F4 mAb
# Description: as §1, §2
# The presence of macrophages was detected by staining with mAb Iba-1 (1:8000 diln) followed by addition of biotinylated rabbit anti-mouse secondary reagent (Vector Rabbit Elite kit). The slides were developed, as described above. All tissue sections were examined using a Leica DM500 light microscope fitted with cross-polarizing filters (for Congo red). Digital microscopic images were acquired using a cooled CCD camera (SPOT; Diagnostic Instruments).
# mAb clones = experiment: Capture of biotinylated negative control peptides by adsorbed mAbs; assay type: binding, murine; conditions: 100 ng/well
# Description: More particularly, 96-well ELISA microplates were coated overnight with the indicated mAbs (500 ng/well), the wells were blocked with PBS/BSA solution before addition of biotinylated p5+14 peptide (100 ng/well). Biotinylated peptides, p5R and p31G (aka p5G) were used as a negative control. Following a wash step, detection of captured peptide was achieved by addition of europium-conjugated streptavidin as described above.
# BSA-blocked wells = BSA-blocked wells (Bos taurus, UniProt P02769); experiment: p66 and 11-1F4 on BSA-blocked wells without fibrils; assay type: binding; conditions: no fibrils
# AA amyloid deposits = experiment: In vivo binding of 125I-p66 in mice with systemic AA amyloidosis
# Description: Systemic visceral AA amyloidosis was induced in H2-L^d-huIL-6 Tg Balb/c transgenic mice that constitutively express the human interleukin-6 transgene, by iv injection of 10 μg of purified, splenic AA amyloid (amyloid enhancing factor; AEF) in 100 μL of sterile phosphate-buffered saline (PBS). Peptide p66 was evaluated in mice at 4-6 wk post AEF injection when amyloid load was significant.
# (§3) Imaging was performed using WT or AA amyloid mice (n=3) that were injected with ˜5 μg of ^125I-p66, 125 μCi in the lateral tail vein. After the appropriate uptake time (data for 4 and 72 h pi shown), mice were euthanized by isoflurane inhalation overdose. SPECT images were acquired using an Inveon trimodality imaging platform (Siemens Preclinical Solution, Knoxville, Tenn.) running Inveon Acquisition Workplace software (ver. 2.0). Low energy (^125I; 25-45 keV) gamma photons were acquired at each of 60, 16-sec projections with 90 mm of bed travel. A 1 mm-diameter, 5-pinhole (Mouse Whole Body) collimator was used at 30 mm from the center of the field of view. Data were reconstructed post hoc onto an 88×88×312 matrix with isotropic 0.50 mm voxels using a 3D ordered subset expectation maximization (OSEM) algorithm (8 iterations; 6 subsets).
# CT data were acquired using an x-ray voltage biased to 80 kVp with a […] anode current, with 4×4 binning. A 225 msec exposure was used, and 360, 1-degree projections were collected. The data were reconstructed using an implementation of the Feldkamp filtered back-projection algorithm onto a 512×512×1296 matrix with isotropic 0.106 mm voxels. […]
# Samples of liver, spleen, pancreas, kidneys, small and large intestines, stomach and heart were harvested post mortem from every mouse undergoing imaging with ^125I-p66. A sample of each was placed into a tared, plastic vial, weighed and the ^125I radioactivity measured using an automated Wizard 3 gamma counter (1480 Wallac Gamma Counter, Perkin Elmer). The biodistribution data were expressed as % injected dose/g tissue (% ID/g). […]
# [2] = In vivo binding of 125I-p66 in healthy WT mice; conditions: 125I-labelled peptide iv
# Description: as §3
# Samples of liver, spleen, pancreas, kidneys, small and large intestines, stomach and heart were harvested post mortem from every mouse undergoing imaging with ^125I-p66. A sample of each was placed into a tared, plastic vial, weighed and the ^125I radioactivity measured using an automated Wizard 3 gamma counter (1480 Wallac Gamma Counter, Perkin Elmer). The biodistribution data were expressed as % injected dose/g tissue (% ID/g). In addition, samples of each tissue were fixed in 10% buffered-formalin for 24 h and embedded in paraffin for autoradiography. […]
# BSA-blocked wells, sequence (P02769 25-607): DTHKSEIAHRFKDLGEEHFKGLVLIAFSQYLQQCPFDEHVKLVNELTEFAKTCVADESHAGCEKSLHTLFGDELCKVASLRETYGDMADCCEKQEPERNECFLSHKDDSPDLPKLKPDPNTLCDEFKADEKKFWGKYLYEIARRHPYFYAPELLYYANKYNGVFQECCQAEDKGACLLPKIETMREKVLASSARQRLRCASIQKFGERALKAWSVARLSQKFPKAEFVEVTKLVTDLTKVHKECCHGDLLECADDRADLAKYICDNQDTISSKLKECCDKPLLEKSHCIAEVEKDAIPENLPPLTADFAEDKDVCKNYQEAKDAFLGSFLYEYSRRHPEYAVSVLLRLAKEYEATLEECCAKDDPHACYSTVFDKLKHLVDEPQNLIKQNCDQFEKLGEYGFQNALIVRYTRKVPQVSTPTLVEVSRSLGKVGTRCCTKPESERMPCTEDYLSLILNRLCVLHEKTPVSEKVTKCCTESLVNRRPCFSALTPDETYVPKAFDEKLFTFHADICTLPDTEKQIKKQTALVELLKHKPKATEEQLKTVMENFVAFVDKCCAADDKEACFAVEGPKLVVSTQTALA
Substance,Direct staining of ATTR amyloid by biotinylated peptide (human ATTR amyloid),Binding of 125I-peptide to amyloid samples (pull-down) ([1]; 0.15 M NaCl),Binding of 125I-peptide to amyloid samples (pull-down) ([1]; 1.0 M NaCl),Peptide associated with AA amyloid in tissues (immunohistochemistry with clone 12-3) (AA amyloid),Liver macrophage infiltration (Iba-1 staining) (liver macrophages),Capture of biotinylated peptide by adsorbed mAb clones (mAb clones),Peptide binding to BSA-blocked wells in the absence of fibrils (BSA-blocked wells),"Binding to amyloid deposits in vivo (micro-autoradiography vs Congo red) (AA amyloid deposits; 125I-labelled peptide iv, mice with systemic AA amyloidosis)","Reactivity with amyloid in vivo, notably liver, spleen, pancreas and intestines (SPECT/CT imaging and tissue biodistribution) (AA amyloid deposits; 125I-labelled peptide, AA mice)","Time post injection at which liver amyloid could be visualized by SPECT imaging (AA amyloid deposits; 125I-labelled peptide, AA mice)",Binding to healthy tissues in vivo (micro-autoradiography) [2]
p5+14: SEQ ID NO: 17: KAQKAQAKQAKQAQKAQKAQAKQAKQAQKAQKAQAKQAKQ (KAQKAQAKQAKQAQKAQKAQAKQAKQAQKAQKAQAKQAKQ; Peptide p5+14),co-localizes with amyloid deposits,bound equally well,bound equally well,p5+14-coated AA amyloid in all tissues evaluated,induced macrophage infiltration,,,,,,
p5G: SEQ ID NO: 3: GAQGAQAGQAGQAQGAQGAQAGQAGQ (GAQGAQAGQAGQAQGAQGAQAGQAGQ; Peptide p5G),,,,,,not captured,,,,,
p5R: SEQ ID NO: 2: RAQRAQARQARQAQRAQRAQARQARQ (RAQRAQARQARQAQRAQRAQARQARQ; Peptide p5R),,,,,,not captured,,,,,
p66: SEQ ID NO: 18: p5+14 fused via linker SVTVVT to 11-1F4 12-mer epitope KHYAAFPENLLI (KAQKAQAKQAKQAQKAQKAQAKQAKQAQKAQKAQAKQAKQSVTVVTKHYAAFPENLLI; Fusion protein between p66 and antibody epitope sequence 11-1F4),,bound equally well,bound equally well,associated specifically with AA amyloid,induced macrophage infiltration into the liver and clustering of macrophages around amyloid deposits to a greater degree,,no peptide bound,specifically bound the amyloid deposits,confirmed,at least 72 h,did not bind to any tissue
